Several values for one entry are separate records, joined by “and”; a condition that tells them apart may be missing. Identical values can stand only once.
What was measured:
cbv1+β1Y32V = biological target: T1, cbv1+β1Y32V (Rattus norvegicus, UniProt P97678, Y32V); assay: Channel activity (NPo) in POPE/POPS bilayers, cbv1+β1Y32V; type: biochemical; settings: for normalized NPo, time course Fig 2E: Y32V PROG
T1 construct: made in house; host or cells: CHO cells, transient transfection; sucrose-gradient membrane preparation
T1 sequence (P97678 whole entry Y32V): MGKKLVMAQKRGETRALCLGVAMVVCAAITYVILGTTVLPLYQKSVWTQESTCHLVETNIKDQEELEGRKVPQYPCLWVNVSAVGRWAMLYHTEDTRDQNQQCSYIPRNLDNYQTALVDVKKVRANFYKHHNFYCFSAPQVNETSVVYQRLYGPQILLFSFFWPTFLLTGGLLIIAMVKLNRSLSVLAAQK
T1 sequence (Q62976 1-1148 isoform Q62976-2 partner): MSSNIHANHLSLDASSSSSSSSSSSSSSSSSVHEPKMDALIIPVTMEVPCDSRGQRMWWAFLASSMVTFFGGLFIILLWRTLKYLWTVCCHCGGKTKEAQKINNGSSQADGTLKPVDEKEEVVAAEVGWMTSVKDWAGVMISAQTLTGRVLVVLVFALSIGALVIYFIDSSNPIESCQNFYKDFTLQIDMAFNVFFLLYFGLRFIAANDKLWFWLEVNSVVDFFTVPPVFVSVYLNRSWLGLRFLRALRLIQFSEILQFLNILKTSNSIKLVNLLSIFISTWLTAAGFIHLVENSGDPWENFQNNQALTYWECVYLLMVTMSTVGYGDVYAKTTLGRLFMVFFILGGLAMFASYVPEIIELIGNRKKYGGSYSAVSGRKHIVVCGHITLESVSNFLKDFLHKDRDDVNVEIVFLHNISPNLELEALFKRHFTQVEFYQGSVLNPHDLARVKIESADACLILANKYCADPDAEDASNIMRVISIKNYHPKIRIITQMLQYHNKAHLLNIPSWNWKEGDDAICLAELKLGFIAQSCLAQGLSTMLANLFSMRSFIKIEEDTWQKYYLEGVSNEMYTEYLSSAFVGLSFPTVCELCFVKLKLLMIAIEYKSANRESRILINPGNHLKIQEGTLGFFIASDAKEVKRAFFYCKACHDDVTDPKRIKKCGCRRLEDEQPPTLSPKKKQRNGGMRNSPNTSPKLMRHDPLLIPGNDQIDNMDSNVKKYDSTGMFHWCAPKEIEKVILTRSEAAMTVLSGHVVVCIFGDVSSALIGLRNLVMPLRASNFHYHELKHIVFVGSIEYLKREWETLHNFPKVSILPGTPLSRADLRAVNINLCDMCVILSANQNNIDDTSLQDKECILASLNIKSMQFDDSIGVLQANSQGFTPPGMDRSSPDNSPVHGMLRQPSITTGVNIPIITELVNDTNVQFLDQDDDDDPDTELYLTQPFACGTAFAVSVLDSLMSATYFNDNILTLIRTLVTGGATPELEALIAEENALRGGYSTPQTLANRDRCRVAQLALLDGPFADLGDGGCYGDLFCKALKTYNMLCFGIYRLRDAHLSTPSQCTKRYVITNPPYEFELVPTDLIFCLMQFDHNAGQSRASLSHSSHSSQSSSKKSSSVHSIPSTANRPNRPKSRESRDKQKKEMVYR
Description: (§1) BK channel-forming slo1 cDNA (cbv1 isoform; AY330293) was cloned from rat cerebral artery SM cells, and inserted into pcDNA3.1 vector as described. BK β1 cDNA (KCNMB1 product; NP_011452; FJ154955) were isolated from rat cerebral artery SM cells and cloned as described. β4 cDNA (KCNMB4; NP_055320; AY028605) were generously provided by Dr. Ligia Toro. CHO cells were transiently transfected with cbv1 ± β1-, or β4-carrying pcDNA3.1 using X-tremeGENE HP (Sigma-Aldrich). Mutations to β1/4 cDNAs were conducted by Genscript, with sequences being confirmed to be >99% identical to KCNMB1 product; NP_011452 or β4 KCNMB4; NP_055320; respectively. β1/4 and mutant constructs were flag-tagged (DYKDDDDK-tag) by Genscript services for subsequent immunoprecipitation and use in microscale thermophoresis studies.
(§2) Proteins for electrophysiological recordings in artificial lipid bilayers remained untagged. Cells were transiently transfected as described above, pelleted and re-suspended on ice in 10 ml of buffer solution of the following composition (mM): 30 KCl, 2 MgCl2, 10 HEPES, 5 EGTA; pH 7.2. A membrane preparation was obtained using a sucrose gradient as described. Aliquots were stored at −80 °C. BK channel-mediated ionic current was recorded in planar lipid bilayers consisting of a POPE:POPS 3:1 (w/w) mixture. Lipid mixtures were dried under N2 and re-suspended in 25 mg/ml of n-decane BK currents following incorporation into horizontal bilayers at 300/30 mM cis/trans gradient as detailed elsewhere. Ion currents were obtained during a 10-min gap-free recording at 0 mV in the presence of 0.01, 10 μM PROG, 10 μM PROG-oxime, or vehicle control (dimethyl sulfoxide; DMSO). Currents were obtained in gap-free mode using a Warner BC-525D amplifier, low pass-filtered at 1 kHz and sampled at 5 kHz with Digidata 1550B/pCLAMP 11 (Molecular Devices). For comparison with previous data from us[16],[17],[45]–[47], studies were conducted at 20–22 °C. PROG stock, oxime stock or vehicle control (DMSO) was added to the bilayer cis chamber to reach final concentrations (0.01–10 µM), with all compounds being dissolved with the same concentration of DMSO (0.1%); n = 5–10 for each group.
(§3) Patch-clamp and bilayer data were analyzed using Clampfit 10.7 software (Molecular Devices). NPo was used as an index of channel steady-state activity where N = number of channels in the patch (defined as a maximal number of opening levels at Po≤1) and Po=single channel open probability. Drug-induced NPo changes were determined by comparing baseline NPo (i.e., NPo with the patch/cell perfused with bath solution) to the NPo from the same patch/cell exposed to the agent under study (DMSO/PROG/oxime) dissolved in bath solution. NPo and mean open time values were automatically calculated using Clampfit 10.7, the latter using a 50% threshold detection event.

cbv1+β1W163I = biological target: T2, cbv1+β1W163I (Rattus norvegicus, UniProt P97678, W163I); assay: Channel activity (NPo) in POPE/POPS bilayers, cbv1+β1W163I; type: biochemical; settings: for normalized NPo, time course Fig 2E: W163I PROG
T2 construct: made in house; host or cells: CHO cells, transient transfection; sucrose-gradient membrane preparation
T2 sequence (P97678 whole entry W163I): as the sequence (P97678 whole entry Y32V) above, with V32Y, W163I counted along it
T2 sequence (Q62976 1-1148 isoform Q62976-2 partner): as the sequence (Q62976 1-1148 isoform Q62976-2 partner) above
Description: as §1, §2, §3

[1] = biological target: T3, slo1 (cbv1) homotetramers (Rattus norvegicus, UniProt Q62976); assay: Channel activity (NPo) in POPE/POPS bilayers, cbv1 homomers; type: biochemical
T3 construct: made in house; host or cells: CHO cells, transient transfection; sucrose-gradient membrane preparation
T3 sequence (Q62976 1-1148 isoform Q62976-2): as the sequence (Q62976 1-1148 isoform Q62976-2 partner) above
Description: as §1, §2, §3

[2] = biological target: T4, smooth muscle myocyte BK channels (C57BL/6) (Mus musculus, UniProt Q8CAE3); assay: Inside-out patch-clamp of MCA smooth muscle myocytes, wt mice; type: cell-based
T4 construct: endogenous in cells; host or cells: freshly isolated mouse middle cerebral artery smooth muscle cells, inside-out patches
T4 sequence (Q8CAE3 whole entry): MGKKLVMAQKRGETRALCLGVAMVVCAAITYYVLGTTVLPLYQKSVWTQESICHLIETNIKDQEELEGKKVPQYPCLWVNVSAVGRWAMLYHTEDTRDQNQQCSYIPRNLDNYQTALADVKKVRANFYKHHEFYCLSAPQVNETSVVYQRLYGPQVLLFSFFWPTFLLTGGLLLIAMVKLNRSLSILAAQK
T4 sequence (Q08460 whole entry partner): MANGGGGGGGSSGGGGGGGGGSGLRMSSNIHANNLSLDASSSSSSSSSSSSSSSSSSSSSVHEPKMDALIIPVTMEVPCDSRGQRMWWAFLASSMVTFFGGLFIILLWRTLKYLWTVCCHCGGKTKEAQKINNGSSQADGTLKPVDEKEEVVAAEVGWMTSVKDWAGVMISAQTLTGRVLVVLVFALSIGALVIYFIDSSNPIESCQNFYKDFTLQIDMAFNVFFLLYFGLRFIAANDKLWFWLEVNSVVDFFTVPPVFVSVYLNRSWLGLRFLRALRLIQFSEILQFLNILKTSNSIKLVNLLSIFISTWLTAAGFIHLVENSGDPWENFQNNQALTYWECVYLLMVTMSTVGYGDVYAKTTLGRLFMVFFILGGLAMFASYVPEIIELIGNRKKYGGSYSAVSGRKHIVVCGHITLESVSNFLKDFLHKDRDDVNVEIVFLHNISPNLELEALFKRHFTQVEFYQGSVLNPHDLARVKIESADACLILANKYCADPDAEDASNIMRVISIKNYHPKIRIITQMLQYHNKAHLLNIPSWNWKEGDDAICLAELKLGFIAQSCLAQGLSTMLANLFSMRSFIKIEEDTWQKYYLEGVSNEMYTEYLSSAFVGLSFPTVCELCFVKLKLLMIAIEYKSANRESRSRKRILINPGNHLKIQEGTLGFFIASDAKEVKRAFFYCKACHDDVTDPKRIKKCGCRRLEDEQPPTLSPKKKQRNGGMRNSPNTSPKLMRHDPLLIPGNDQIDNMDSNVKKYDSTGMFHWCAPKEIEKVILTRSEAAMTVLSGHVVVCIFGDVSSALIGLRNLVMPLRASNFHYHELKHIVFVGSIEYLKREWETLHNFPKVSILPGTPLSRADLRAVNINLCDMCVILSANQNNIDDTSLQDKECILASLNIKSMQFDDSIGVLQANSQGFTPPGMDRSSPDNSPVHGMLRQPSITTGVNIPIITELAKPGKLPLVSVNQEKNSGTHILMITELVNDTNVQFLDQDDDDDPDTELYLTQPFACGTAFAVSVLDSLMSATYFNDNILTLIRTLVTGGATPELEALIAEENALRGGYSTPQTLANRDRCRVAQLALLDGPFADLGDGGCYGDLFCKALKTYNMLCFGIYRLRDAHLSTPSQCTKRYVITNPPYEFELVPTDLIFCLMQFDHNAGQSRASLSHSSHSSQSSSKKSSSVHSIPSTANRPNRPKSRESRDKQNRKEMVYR
Description: Ionic currents were recorded from excised, inside-out (I/O) patches. […] In all experiments, free [Ca^2+] in solution was adjusted to the desired value by adding the appropriate amount of Ca^2+ from a 1 mM CaCl2 stock. An agar bridge with Cl^- as main anion was used as ground electrode. Solutions were applied onto the cytosolic side of I/O patches using an automated, pressurized system (Octaflow; […] Ionic currents at single channel resolution were recorded using an EPC8 amplifier (HEKA) at 1 kHz. Data were digitized at 5 kHz using a Digidata […] A/D converter and pCLAMP 8.0 (Molecular Devices); n = 5/group. […] Drug-induced NPo changes were determined by comparing baseline NPo (i.e., NPo with the patch/cell perfused with bath solution) to the NPo from the same patch/cell exposed to the agent under study (DMSO/PROG/oxime) dissolved in bath solution.

[3] = time 1 min (normalisation reference)

CC(=O)[C@H]1CC[C@H]2[C@@H]3CCC4=CC(=O)CC[C@]4(C)[C@H]3CC[C@]12C [PROG, Progesterone]
action on channel activity (NPo) (cbv1+β1Y32V; 10 µM, vs DMSO): effectively abolished PROG action
normalized NPo, time course Fig 2E (cbv1+β1Y32V; [3]): 1
normalized NPo, time course Fig 2E (cbv1+β1Y32V; time 3 min): 1.125 and 0.8919 and 0.9083 and 0.945 and 0.929
normalized NPo, time course Fig 2E (cbv1+β1Y32V; time 5 min): 0.9853 and 0.9339 and 0.8202 and 0.8981 and 0.6799
normalized NPo, time course Fig 2E (cbv1+β1Y32V; time 6 min): 1.106 and 1.228 and 1.117 and 1.276 and 0.8487
normalized NPo, time course Fig 2E (cbv1+β1Y32V; time 7 min): 1.144 and 0.9028 and 1.206 and 0.9453
normalized NPo, time course Fig 2E (cbv1+β1Y32V; time 8 min): 0.6757 and 1.202 and 0.918 and 1.1397
normalized NPo, time course Fig 2E (cbv1+β1Y32V; time 9 min): 0.5676 and 0.9266 and 0.822 and 1.088
normalized NPo, time course Fig 2E (cbv1+β1Y32V; time 10 min): 0.7195 and 0.8661 and 0.9555 and 1.102
action on channel activity (NPo) (cbv1+β1W163I; 10 µM, vs DMSO): effectively abolished PROG action
normalized NPo, time course Fig 2E (cbv1+β1W163I; [3]): 1
normalized NPo, time course Fig 2E (cbv1+β1W163I; time 2 min): 0.8408 and 0.8822 and 1.039 and 0.6048 and 0.9835
normalized NPo, time course Fig 2E (cbv1+β1W163I; time 6 min): 0.9156 and 1.236 and 1.01 and 0.7339 and 0.9865
normalized NPo, time course Fig 2E (cbv1+β1W163I; time 7 min): 1.033 and 1.222 and 0.6583 and 1.166
normalized NPo, time course Fig 2E (cbv1+β1W163I; time 8 min): 0.9156 and 0.8317 and 0.9282 and 1.117
normalized NPo, time course Fig 2E (cbv1+β1W163I; time 9 min): 1.0966 and 0.7071 and 0.5738 and 1.067
normalized NPo, time course Fig 2E (cbv1+β1W163I; time 10 min): 1.291 and 0.8215 and 0.6728 and 1.157
NPo/NPobasal ([1]; 10 µM PROG, min 2, single records): 1.014 and 0.7178 and 0.9853 and 1 and 0.9322
NPo/NPobasal ([1]; 10 µM PROG, min 4, single records): 1.047 and 1.067 and 1.015 and 1.069 and 1.029
NPo/NPobasal ([1]; 10 µM PROG, min 5, single records): 1.023 and 1.182 and 1.11 and 1.053 and 1.066
NPo/NPobasal ([1]; 10 µM PROG, min 6, single records): 1.028 and 1.207 and 1.088 and 1.041 and 1.129
NPo/NPobasal ([1]; 10 µM PROG, min 7, single records): 0.8935 and 1.1318 and 1.162 and 1.118 and 1.064
NPo/NPobasal ([1]; 10 µM PROG, min 8, single records): 1.148 and 1.63 and 1.096 and 1.061 and 1.045
NPo/NPobasal ([1]; 10 µM PROG, min 10, single records): 1.394 and 1.416 and 1.11 and 0.7114 and 1.049
maximal activity (NPo/NPobasal) ([1]; 10 µM PROG, single records (Fig 1I)): 1.053 and 1.066 and 1.023 and 1.182 and 1.11
action on channel activity (NPo) ([1]; 10 μM, up to 10 min): consistently failed to activate the homomeric channels
increase of BK channel activity ([2]; 10 µM, I/O patches, 30 μM free Ca2+): ~ 3 fold
normalized NPo, time course Fig 5C ([2]; wt mouse, PROG, time 1 (normalisation reference), columns = cell number): 1

Reference: publication PMC10636063, “Progesterone activation of β1-containing BK channels involves two binding sites” (Nature Communications, 2023)
